Test results published in patent US11999739B2, “Antimicrobials methods of making and using the same” (BIOVERSYS AG, priority 2016, dated 2024).

Columns and labels:
[1] = test system: Staphylococcus aureus (S. aureus) 11540 strain; assay: Standard microdilution MIC assay, S. aureus; type: cell-based
Experimental: (§1) The in vitro activity of the compounds of the present disclosure can be determined. Antimicrobial testing is typically performed to determine the minimum inhibitory concentration (MIC). Minimum inhibitory concentrations (MICs) are determined by the microdilution method in a final volume of 100 μl according to protocols outlined by The Clinical and Laboratory Standards Institute (CLSI). Performance standards for reference strains are assessed within the same experimental design to maintain quality control. See, for example, Clinical Laboratory Standards Institute: Methods for dilution antimicrobial susceptibility tests for bacteria that grow aerobically M7-A8. Approved Standard-Eighth Edition. Wayne, PA: CLSI; December 2008; and Clinical Laboratory Standards Institute: Performance Standards for Antimicrobial Susceptibility Testing M100-S20; Approved Standard-Twentieth Edition. Wayne, PA: CLSI; June 2010.
(§2) The compounds of the present disclosure were tested for antimicrobial activity. The Compounds 1-293 were run against Escherichia coli (E co/i) strain ATCC25922 and against Staphylococcus aureus (S. aureus) 11540 strain using a standard microdilution assay to determine minimum inhibitory concentrations (MICs). […] It will be recognized by one skilled in the art that the compounds can be assessed against other bacterial organisms and that the presentation of data for activity against Escherichia coli and Staphylococcus aureus are illustrative and in no way is intended to limit the scope of the present disclosure. The compounds of the present disclosure can be assayed against a range of other microorganisms depending upon the performance activity desired to be gathered. Furthermore, the “+” and “−” representation and the selection of a cutoff value of 16 micrograms/mL is also illustrative and in no way is intended to limit the scope of the present disclosure.

[2] = test system: Escherichia coli strain ATCC25922; assay: Standard microdilution MIC assay, E. coli; type: cell-based
Experimental: as §1, §2

SMILES	MIC [1]	MIC [2]
C=C[C@@H](CCNC(=N)CF)NCc1ccc(-n2cc3cc(-c4cc(CCC[C@@H](N)CO)cc(Cl)c4F)[nH]c3nc2=O)cc1 [Compound 2]	≤ 16 µg/mL	≤ 16 µg/mL
C=C[C@@H](CCNC(C)=N)OCc1ccc(-n2cc3cc(-c4cc(CCC[C@H](C)N)cc(Cl)c4F)[nH]c3nc2=O)cc1 [Compound 3]	≤ 16 µg/mL	≤ 16 µg/mL
CC(=N)NCC[C@H]1CNC[C@@H](c2ccc(-n3cc4cc(-c5cc(CCC[C@H](C)N)cc(Cl)c5F)[nH]c4nc3=O)cc2)O1 [Compound 4]	≤ 16 µg/mL	≤ 16 µg/mL
C=CC(CCNC(C)=N)NCc1ccc(-n2cc3cc(-c4cc(CCCC(C)(C)N)cc(Cl)c4F)[nH]c3nc2=O)cc1 (centres unmarked) [Compound 6]	≤ 16 µg/mL	≤ 16 µg/mL
CC(=N)NCC[C@@H]1CCC[C@@H](c2ccc(-n3cc4cc(-c5cc(CCCC(C)(C)N)cc(Cl)c5F)[nH]c4nc3=O)cc2)N1 [Compound 7]	≤ 16 µg/mL	≤ 16 µg/mL
C=CC(CCNC(C)=N)NCc1ccc(-n2cc3cc(-c4cc(CCC[C@@H](N)CO)cc(Cl)c4F)[nH]c3nc2=O)cc1 (some centres unmarked) [Compound 8]	≤ 16 µg/mL	≤ 16 µg/mL
C=CC(CCNC(=N)CSC)NCc1ccc(-n2cc3cc(-c4cc(CCC[C@H](C)N)cc(Cl)c4F)[nH]c3nc2=O)cc1 (some centres unmarked) [Compound 9]	≤ 16 µg/mL	≤ 16 µg/mL
C=CC(CCNC(=N)CCOCC)NCc1ccc(-n2cc3cc(-c4cc(CCC[C@H](C)N)cc(Cl)c4F)[nH]c3nc2=O)cc1 (some centres unmarked) [Compound 10]	≤ 16 µg/mL	≤ 16 µg/mL
C=CC(CCNC(C)=N)NCc1ccc(-n2cc3cc(-c4cc(CCC[C@@H](N)C(F)(F)F)cc(Cl)c4F)[nH]c3nc2=O)cc1 (some centres unmarked) [Compound 11]	≤ 16 µg/mL	> 16 µg/mL
CC(C)(N)CCCc1cc(Cl)c(F)c(-c2cc3cn(-c4ccc([C@@H]5CCC[C@@H](CCNC(=N)CF)N5)cc4)c(=O)nc3[nH]2)c1 [Compound 12]	≤ 16 µg/mL	≤ 16 µg/mL
C=CC(CCNC(=N)CF)NCc1ccc(-n2cc3cc(-c4cc(CCC[C@@H](N)C(F)(F)F)cc(Cl)c4F)[nH]c3nc2=O)cc1 (some centres unmarked) [Compound 13]	> 16 µg/mL	> 16 µg/mL
C=C[C@@H](CCNC(C)=N)NCc1ccc(-n2cc3cc(-c4cc(CCC[C@H](C)N)cc(Cl)c4F)[nH]c3nc2=O)cc1 [Compound 14]	≤ 16 µg/mL	≤ 16 µg/mL
C=C[C@@H](CCNC(=N)CCO)NCc1ccc(-n2cc3cc(-c4cc(CCC[C@H](C)N)cc(Cl)c4F)[nH]c3nc2=O)cc1 [Compound 15]	≤ 16 µg/mL	≤ 16 µg/mL
C=CC(CCNC(=N)CC(F)(F)F)NCc1ccc(-n2cc3cc(-c4cc(CCC[C@H](C)N)cc(Cl)c4F)[nH]c3nc2=O)cc1 (some centres unmarked) [Compound 16]	≤ 16 µg/mL	≤ 16 µg/mL
CC(=N)NCC[C@H](CN)NCc1ccc(-n2cc3cc(-c4cc(CCC[C@H](C)N)cc(Cl)c4F)[nH]c3nc2=O)cc1 [Compound 17]	≤ 16 µg/mL	≤ 16 µg/mL
CC(=N)NCC[C@H](CO)NCc1ccc(-n2cc3cc(-c4cc(CCC[C@H](C)N)cc(Cl)c4F)[nH]c3nc2=O)cc1 [Compound 18]	≤ 16 µg/mL	≤ 16 µg/mL
CC(=N)NCC[C@H](CNc1ncc[nH]1)NCc1ccc(-n2cc3cc(-c4cc(CCC[C@H](C)N)cc(Cl)c4F)[nH]c3nc2=O)cc1 [Compound 19]	≤ 16 µg/mL	≤ 16 µg/mL
C[C@H](N)CCCc1cc(Cl)c(F)c(-c2cc3cn(-c4ccc(CN[C@@H](CN)CCNC(=N)CF)cc4)c(=O)nc3[nH]2)c1 [Compound 20]	≤ 16 µg/mL	≤ 16 µg/mL
C[C@H](N)CCCc1cc(Cl)c(F)c(-c2cc3cn(-c4ccc(CN[C@H](CCNC(=N)CF)CNc5ncc[nH]5)cc4)c(=O)nc3[nH]2)c1 [Compound 21]	≤ 16 µg/mL	≤ 16 µg/mL
C=CC(CCNC(=N)CF)NCc1ccc(-n2cc3cc(-c4cc(CCCC(C)(C)N)cc(Cl)c4F)[nH]c3nc2=O)cc1 (centres unmarked) [Compound 22]	≤ 16 µg/mL	≤ 16 µg/mL
CC(=N)NCC[C@@H]1CCC[C@@H](c2ccc(-n3cc4cc(-c5cc(CCC(C)(C)CN)cc(Cl)c5F)[nH]c4nc3=O)cc2)N1 [Compound 24]	≤ 16 µg/mL	≤ 16 µg/mL
CC(C)(CN)CCc1cc(Cl)c(F)c(-c2cc3cn(-c4ccc([C@@H]5CCC[C@@H](CCNC(=N)CF)N5)cc4)c(=O)nc3[nH]2)c1 [Compound 25]	≤ 16 µg/mL	≤ 16 µg/mL
C=CC(CCNC(C)=N)NCc1ccc(-n2cc3cc(-c4cc(CCC(C)(C)CN)cc(Cl)c4F)[nH]c3nc2=O)cc1 (centres unmarked) [Compound 26]	≤ 16 µg/mL	≤ 16 µg/mL

SMILES	MIC [1]	MIC [2]
C=CC(CCNC(=N)CF)NCc1ccc(-n2cc3cc(-c4cc(CCC(C)(C)CN)cc(Cl)c4F)[nH]c3nc2=O)cc1 (centres unmarked) [Compound 27]	≤ 16 µg/mL	≤ 16 µg/mL
C[C@H](N)CCCc1cc(Cl)c(F)c(-c2cc3cn(-c4ccc([C@@H]5CNC[C@H](CCNC(=N)CF)O5)cc4)c(=O)nc3[nH]2)c1 [Compound 28]	≤ 16 µg/mL	≤ 16 µg/mL
CC(=N)NCC[C@@H]1CCC[C@@H](c2ccc(-n3cc4cc(-c5cc(CCC[C@H](C)NC(C)=N)cc(Cl)c5F)[nH]c4nc3=O)cc2)N1 [Compound 29]	≤ 16 µg/mL	≤ 16 µg/mL
C=C[C@@H](N)CCCc1cc(Cl)c(F)c(-c2cc3cn(-c4ccc(CN[C@@H](C=C)CCNC(C)=N)cc4)c(=O)nc3[nH]2)c1 [Compound 30]	≤ 16 µg/mL	≤ 16 µg/mL
C=C[C@@H](N)CCCc1cc(Cl)c(F)c(-c2cc3cn(-c4ccc(CN[C@H](C=C)CCNC(C)=N)cc4)c(=O)nc3[nH]2)c1 [Compound 31]	≤ 16 µg/mL	≤ 16 µg/mL
CC(=N)NCC[C@@H]1CNC[C@@H](c2ccc(-n3cc4cc(-c5cc(CCC[C@H](C)N)cc(Cl)c5F)[nH]c4nc3=O)cc2)O1 [Compound 32]	≤ 16 µg/mL	≤ 16 µg/mL
C=CCC(=N)NCCC(C=C)NCc1ccc(-n2cc3cc(-c4cc(CCC[C@H](C)N)cc(Cl)c4F)[nH]c3nc2=O)cc1 (some centres unmarked) [Compound 33]	≤ 16 µg/mL	≤ 16 µg/mL
C=CC(CCNC(=N)COC)NCc1ccc(-n2cc3cc(-c4cc(CCC[C@H](C)N)cc(Cl)c4F)[nH]c3nc2=O)cc1 (some centres unmarked) [Compound 34]	≤ 16 µg/mL	≤ 16 µg/mL
CC(=N)NCC[C@H](CO)NCc1ccc(-n2cc3cc(-c4cc(CCC[C@@H](N)CO)cc(Cl)c4F)[nH]c3nc2=O)cc1 [Compound 35]	≤ 16 µg/mL	≤ 16 µg/mL
C=C[C@@H](N)CCCc1cc(Cl)c(F)c(-c2cc3cn(-c4ccc(CN[C@@H](C=C)CCNC(=N)CF)cc4)c(=O)nc3[nH]2)c1 [Compound 37]	≤ 16 µg/mL	≤ 16 µg/mL
C=C[C@@H](N)CCCc1cc(Cl)c(F)c(-c2cc3cn(-c4ccc(CN[C@H](C=C)CCNC(=N)CF)cc4)c(=O)nc3[nH]2)c1 [Compound 38]	≤ 16 µg/mL	≤ 16 µg/mL
C=C[C@@H](N)CCCc1cc(Cl)c(F)c(-c2cc3cn(-c4ccc(CN[C@@H](CO)CCNC(C)=N)cc4)c(=O)nc3[nH]2)c1 [Compound 39]	≤ 16 µg/mL	≤ 16 µg/mL
CC(=N)NCC[C@H](CO)NCc1ccc(-n2cc3cc(-c4cc(CCCC(C)(C)N)cc(Cl)c4F)[nH]c3nc2=O)cc1 [Compound 40]	≤ 16 µg/mL	≤ 16 µg/mL
CSCC(=N)NCC[C@H](CO)NCc1ccc(-n2cc3cc(-c4cc(CCC[C@H](C)N)cc(Cl)c4F)[nH]c3nc2=O)cc1 [Compound 41]	≤ 16 µg/mL	≤ 16 µg/mL
CSCC(=N)NCC[C@@H]1CCC[C@@H](c2ccc(-n3cc4cc(-c5cc(CCC[C@H](C)N)cc(Cl)c5F)[nH]c4nc3=O)cc2)N1 [Compound 42]	≤ 16 µg/mL	≤ 16 µg/mL
C=C[C@@H](CCNC(=N)CF)NCc1ccc(-n2cc3cc(-c4cc(CCC[C@@H](N)C(F)(F)F)cc(Cl)c4F)[nH]c3nc2=O)cc1 [Compound 43]	≤ 16 µg/mL	≤ 16 µg/mL
C=C[C@H](CCNC(=N)CF)NCc1ccc(-n2cc3cc(-c4cc(CCC[C@@H](N)C(F)(F)F)cc(Cl)c4F)[nH]c3nc2=O)cc1 [Compound 44]	≤ 16 µg/mL	> 16 µg/mL
CC(=N)NCC[C@@H]1CNC[C@H](c2ccc(-n3cc4cc(-c5cc(CCC[C@H](C)N)cc(Cl)c5F)[nH]c4nc3=O)cc2)N1 [Compound 45]	≤ 16 µg/mL	≤ 16 µg/mL
C[C@H](N)CCCc1cc(Cl)c(F)c(-c2cc3cn(-c4ccc([C@H]5CNC[C@@H](CCNC(=N)CF)N5)cc4)c(=O)nc3[nH]2)c1 [Compound 46]	≤ 16 µg/mL	≤ 16 µg/mL
CC(=N)NCC[C@@H]1COC[C@@H](c2ccc(-n3cc4cc(-c5cc(CCC[C@H](C)N)cc(Cl)c5F)[nH]c4nc3=O)cc2)N1 [Compound 47]	≤ 16 µg/mL	≤ 16 µg/mL
CC(=N)NCC[C@H]1CNC[C@@H](c2ccc(-n3cc4cc(-c5cc(CCC[C@H](C)N)cc(Cl)c5F)[nH]c4nc3=O)cc2)N1 [Compound 48]	≤ 16 µg/mL	≤ 16 µg/mL
C[C@H](N)CCCc1cc(Cl)c(F)c(-c2cc3cn(-c4ccc([C@@H]5CNC[C@H](CCNC(=N)CF)N5)cc4)c(=O)nc3[nH]2)c1 [Compound 49]	≤ 16 µg/mL	≤ 16 µg/mL
C[C@H](N)CCCc1cc(Cl)c(F)c(-c2cc3cn(-c4ccc([C@@H]5CNC[C@@H](CCNC(=N)CF)N5)cc4)c(=O)nc3[nH]2)c1 [Compound 51]	≤ 16 µg/mL	≤ 16 µg/mL
